Blank lines part the entries; values can stand above or below the compound they belong to.
What was measured:
[1] = test system: NO production; conditions: previous study; read-out: inhibitory activity on NO production IC50; cited from earlier work
[2] = test system: RAW264.7 cells; test: RAW264.7 cell proliferation / cytotoxicity by MTT assay; type: cell-based
Procedure: (§1) Macrophages may be a potential therapeutic target for inflammatory diseases. Activated macrophages release pro-inflammatory mediators, such as NO, reactive oxygen, interleukin-1 beta, tumor necrosis factor-alpha and other inflammatory mediators, which play important roles in biological defense. […] In the present study, four limonoids and N^G-monomethyl-L-arginine acetate (L-NMMA), an inducible nitric oxide synthase (iNOS) inhibitor, were evaluated for their inhibitory effects on NO production in LPS-stimulated RAW264.7 cells (Figure 5). To determine safe concentrations, the cytotoxicities of these limonoids against RAW 264.7 were assessed by the MTT assay.
RAW264.7 cell proliferation was examined according to a method reported previously with few modifications. Briefly, RAW264.7 cells (5 × 10^4 cells in 100 μL) were seeded onto 96-well microplates and incubated for 24 h. D-MEM (100 μL) containing test samples (final concentration of 100, 30, 10 or 3 μM) dissolved in DMSO (final concentration 0.2%) was added. After the cells had been treated for 24 h, the MTT solution was added. After 3 h of incubation, 20% sodium dodecyl sulfate (SDS) in 0.1 M HCl was added to dissolve the formazan produced by the cells. The absorbance of each well was read at 570 nm using a microplate reader. The optical density of vehicle control cells was assumed to be 100%.

[3] = test system: NO production in LPS-stimulated RAW264.7 cells; test: Inhibitory assay of NO production in LPS-stimulated RAW264.7 cells; type: cell-based; conditions: Mus musculus, LPS 5 μg/mL, 24 h treatment
Procedure: as §1
An inhibitory assay of nitric oxide production was performed according to a method reported previously with slight modifications. Briefly, RAW264.7 cells (5 × 10^4 cells in 100 μL) were seeded onto 96-well microplates and incubated for 24 h. D-MEM (100 μL) containing test samples (final concentration of 100, 30, 10 or 3 μM) dissolved in DMSO (final concentration 0.2%) and LPS (final concentration of 5 μg/mL) were added. After cells had been treated for 24 h, 50 μL of 0.1% N-(1-naphtyl)ethylenediamine in H2O and 50 μL of 1% sulfanilamide in 5% phosphoric acid were added. After being incubated for 30 min, the absorbance of each well was read at 570 nm using a microplate reader. […]

[4] = at the effective concentration 10 μM

Compound: CC(=O)O[C@H]1[C@@H](OC(C)=O)[C@]2(C)[C@H](CC[C@@]3(C)[C@H](c4ccoc4)OC(=O)[C@H]4O[C@@]423)[C@@]2(C)C=CC(=O)C(C)(C)[C@H]12 [6α-acetoxygedunin]
- IC50 [1]: 7.9 µM

Compound: carapanolide J
- IC50 [1]: 37.4 µM

Compound: CC1(C)C(=O)C=CC2(C)C1CC(=O)C1(C)C2CCC2(C)C(c3ccoc3)OC(=O)C3OC321 (stereo not drawn) [7-deacetoxy-7-oxogedunin]
- IC50 [1]: 12.8 µM

Compound: CC(=O)O[C@@H]1[C@H](O)C2C(C)(C)C(=O)C=C[C@]2(C)C2CC[C@@]3(C)[C@H](c4ccoc4)OC(=O)[C@H]4O[C@]43[C@@]21C (stereo partly drawn) [6α-hydroxygedunin]
- IC50 [1]: 19.1 µM

Compound: CC(=O)O[C@@H]1C[C@H]2C(C)(C)C(=O)C=C[C@]2(C)[C@H]2CC[C@@]3(C)[C@H](c4ccoc4)OC(=O)[C@H]4O[C@]43[C@@]21C [gedunin]
- IC50 [1]: 4.6 µM

Compound: 6α-acetoxy-7α-deacetoxy-7α-hydroxygedunin
- IC50 [1]: 9.4 µM

Compound: CC1(C)C(=O)C=CC2(C)C1CC(O)C1(C)C2CCC2(C)C(c3ccoc3)OC(=O)C3OC321 (stereo not drawn) [7-deacetoxy-7-hydroxygedunin]
- IC50 [1]: 8.4 µM

- melting point: 133 to 136 °C
- IC50 [3]: 23.3 µM
Compound: CC=C(C)C(=O)OC1C2(O)CC3(O)C4=CC(=O)OC(c5ccoc5)C4(C)CCC3C(C)(C2=O)C(CC(=O)OC)C1(C)C (stereo not drawn) [Compound 2, Carapanolide U]
- cytotoxicity against RAW264.7 ([2]; at 1–30 μM): did not show cytotoxicities
- cytotoxicity against RAW264.7 [2, 4]: not at an effective concentration

- melting point: 83 to 85 °C
- IC50 [3]: 22 µM
Compound: COC(=O)CC1C(C)(C)C(OC(=O)C(C)C)C2(O)CC3(O)C4=CC(=O)OC(c5ccoc5)C4(C)CCC3C1(C)C2=O (stereo not drawn) [Compound 1, Carapanolide T]
- cytotoxicity against RAW264.7 ([2]; at 30 μM): low cytotoxicity
- cytotoxicity against RAW264.7 [2, 4]: not at the effective concentration
